Laboratory results from patent US10934274B2, “Quinoline derivatives as TAM RTK inhibitors” (Qurient Co., Ltd., priority 2015, dated 2021).

What was measured:
HCC827/ER cells = assay: WST-1 cell viability assay in erlotinib-resistant cells; details: compound combined with Erlotinib at constant 1:1 ratio, 3 days, FBS 1%
Experimental: The killed cells were discarded and the remaining cells were cultured in a drug-free medium up to 80% confluence. Subsequently, cells were continuously exposed to increasing drug doses of up to 10 μM over a period of 8 months.
HCC827/ER cells were seeded in a 96-well plate with their respective media containing 10% FBS at 5000 cells/well. After seeding, the HCC827/ER cells were incubated for approximately 24 hours. […] The viability of the HCC827/ER cells was determined by adding WST-1 reagent according to Manufacturer's instructions (DoGenbio co., Ltd) and incubating for four hours. The plates were then read using an absorbance of 440 nm on Tecan Microplate reader (Infinite M200 pro, TECAN). The HCC827/ER cells' viability were calculated relative to vehicle (DMSO) control wells.

Mer = target: T1, Mer (Homo sapiens, UniProt Q12866); assay: LanthaScreen Eu kinase binding assay, Mer; details: Tracer 236
T1 construct: purchased Life Technologies
T1 sequence (Q12866 21-999): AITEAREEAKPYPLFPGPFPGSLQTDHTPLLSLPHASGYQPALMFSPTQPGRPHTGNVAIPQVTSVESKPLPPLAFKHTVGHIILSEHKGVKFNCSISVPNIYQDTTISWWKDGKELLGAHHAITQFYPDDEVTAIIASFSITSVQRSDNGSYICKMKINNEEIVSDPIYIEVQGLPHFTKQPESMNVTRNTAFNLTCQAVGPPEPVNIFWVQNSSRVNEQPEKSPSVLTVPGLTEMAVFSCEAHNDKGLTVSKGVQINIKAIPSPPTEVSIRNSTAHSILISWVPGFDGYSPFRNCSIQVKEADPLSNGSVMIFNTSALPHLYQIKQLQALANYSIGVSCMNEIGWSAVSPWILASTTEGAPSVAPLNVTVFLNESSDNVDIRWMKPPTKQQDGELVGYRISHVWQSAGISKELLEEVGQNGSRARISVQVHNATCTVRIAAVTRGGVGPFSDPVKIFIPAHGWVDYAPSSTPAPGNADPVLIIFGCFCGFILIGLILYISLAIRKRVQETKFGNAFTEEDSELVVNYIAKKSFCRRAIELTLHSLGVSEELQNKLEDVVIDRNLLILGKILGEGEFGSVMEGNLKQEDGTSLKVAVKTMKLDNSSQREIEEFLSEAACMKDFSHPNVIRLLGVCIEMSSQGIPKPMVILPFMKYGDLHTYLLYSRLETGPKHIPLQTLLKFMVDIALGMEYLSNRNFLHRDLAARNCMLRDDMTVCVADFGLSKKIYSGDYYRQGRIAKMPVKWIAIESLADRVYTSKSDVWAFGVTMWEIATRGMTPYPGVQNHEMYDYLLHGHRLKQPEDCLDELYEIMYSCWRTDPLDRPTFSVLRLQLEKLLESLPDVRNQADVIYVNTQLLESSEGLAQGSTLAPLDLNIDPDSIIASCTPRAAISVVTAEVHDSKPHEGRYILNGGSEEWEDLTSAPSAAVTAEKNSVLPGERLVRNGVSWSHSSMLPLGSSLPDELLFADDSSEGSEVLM

Axl = target: T2, Axl (Homo sapiens, UniProt P30530); assay: LanthaScreen Eu kinase binding assay, Axl; details: Tracer 236
T2 construct: purchased Life Technologies
T2 sequence (P30530 26-894): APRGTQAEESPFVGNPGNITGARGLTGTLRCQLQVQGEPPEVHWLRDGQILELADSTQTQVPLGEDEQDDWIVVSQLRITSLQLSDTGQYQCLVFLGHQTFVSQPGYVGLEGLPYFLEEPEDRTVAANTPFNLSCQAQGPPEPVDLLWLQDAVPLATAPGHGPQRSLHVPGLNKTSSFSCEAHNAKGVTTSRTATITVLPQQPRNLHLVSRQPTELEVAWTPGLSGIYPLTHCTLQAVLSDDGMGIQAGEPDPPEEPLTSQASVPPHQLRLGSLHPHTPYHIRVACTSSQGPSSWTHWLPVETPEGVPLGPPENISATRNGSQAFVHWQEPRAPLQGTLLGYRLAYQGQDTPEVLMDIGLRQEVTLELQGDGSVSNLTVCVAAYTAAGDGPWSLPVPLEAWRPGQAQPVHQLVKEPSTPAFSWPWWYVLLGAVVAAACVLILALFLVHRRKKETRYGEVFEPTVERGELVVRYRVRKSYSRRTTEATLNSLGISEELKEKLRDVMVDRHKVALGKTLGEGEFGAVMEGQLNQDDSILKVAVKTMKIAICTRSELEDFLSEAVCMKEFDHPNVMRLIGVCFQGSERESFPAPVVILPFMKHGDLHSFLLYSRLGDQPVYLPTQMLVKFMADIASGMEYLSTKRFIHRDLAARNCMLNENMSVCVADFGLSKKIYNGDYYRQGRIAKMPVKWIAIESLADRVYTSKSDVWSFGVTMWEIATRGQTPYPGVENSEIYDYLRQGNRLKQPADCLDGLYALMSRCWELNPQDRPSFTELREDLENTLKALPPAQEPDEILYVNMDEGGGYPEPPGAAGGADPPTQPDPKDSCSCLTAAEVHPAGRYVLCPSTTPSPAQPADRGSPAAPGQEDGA

| Kd (Mer) [nM] | Kd (Axl) [nM] | SMILES | Combination effect of compound and erlotinib on inhibition activity in Erlotinib-resistant cell-line (HCC827/ER cells) |
| --- | --- | --- | --- |
| < 100 | < 100 | CCOc1cn(-c2c(C)ccnc2C)nc1C(=O)Nc1ccc(Oc2ccnc3cc(OC)c(OC)cc23)cn1 [Compound 132] | synergistic effect |
| < 100 | < 100 | CCOc1cn(-c2cncnc2C)nc1C(=O)Nc1ccc(Oc2ccnc3cc(OC)c(OC)cc23)cn1 [Compound 149] | synergistic effect |
| < 100 | < 100 | CCOc1cn(-c2cncnc2C2CC2)nc1C(=O)Nc1ccc(Oc2ccnc3cc(OC)c(OC)cc23)cn1 [Compound 167] |  |
| < 100 | < 100 | CCOc1cn(-c2cnccc2C(F)(F)F)nc1C(=O)Nc1ccc(Oc2ccnc3cc(OC)c(OC)cc23)cn1 [Compound 170] |  |
| < 100 | < 100 | CCOc1cn(-c2nccnc2Cl)nc1C(=O)Nc1ccc(Oc2ccnc3cc(OC)c(OC)cc23)cn1 [Compound 177] |  |
| < 100 | < 100 | CCOc1cn(-c2cnccc2CO)nc1C(=O)Nc1ccc(Oc2ccnc3cc(OC)c(OC)cc23)cn1 [Compound 179] |  |
| < 100 | < 100 | CCOc1cn(-c2cnccc2CCO)nc1C(=O)Nc1ccc(Oc2ccnc3cc(OC)c(OC)cc23)cn1 [Compound 181] |  |
| < 100 | < 100 | CCOc1cn(-c2cnccc2C(C)=O)nc1C(=O)Nc1ccc(Oc2ccnc3cc(OC)c(OC)cc23)cn1 [Compound 182] |  |
| < 100 | < 100 | CCOc1cn(-c2cnccc2Cl)nc1C(=O)Nc1ccc(Oc2ccnc3cc(OC)c(OC)cc23)cn1 [Compound 183] |  |
| < 100 | < 100 | CCOc1cn(-c2cnccc2C(C)(C)O)nc1C(=O)Nc1ccc(Oc2ccnc3cc(OC)c(OC)cc23)cn1 [Compound 184] |  |
| < 100 | < 100 | CCOc1cn(-c2c(C)ccnc2C)nc1C(=O)Nc1ccc(Oc2ccnc3cc(OC)c(OC)cc23)c(F)c1 [Compound 188] |  |
| < 100 | < 100 | CCOc1cn(-c2cnccc2Cl)nc1C(=O)Nc1ccc(Oc2ccnc3cc(OC)c(OC)cc23)c(F)c1 [Compound 193] |  |
| < 100 | < 100 | CCOc1cn(-c2cnccc2Cl)nc1C(=O)Nc1ccc(Oc2ccnc3cc(OC)c(OC)cc23)cc1F [Compound 194] |  |
| < 100 | < 100 | CCOc1cn(-c2cnccc2C(C)(C)O)nc1C(=O)Nc1ccc(Oc2ccnc3cc(OC)c(OC)cc23)c(F)c1 [Compound 195] |  |
| < 100 | < 100 | CCOc1cn(-c2cnccc2C(F)(F)F)nc1C(=O)Nc1ccc(Oc2ccnc3cc(OC)c(OC)cc23)c(F)c1 [Compound 198] |  |
| < 100 | < 100 | CCOc1cn(-c2cnccc2C(C)(O)CO)nc1C(=O)Nc1ccc(Oc2ccnc3cc(OC)c(OC)cc23)cn1 (stereo not shown) [Compound 205] |  |
| < 100 | < 100 | CCOc1cn(-c2cnccc2CO)nc1C(=O)Nc1ccc(Oc2ccnc3cc(OC)c(OC)cc23)c(F)c1 [Compound 207] |  |
| < 100 | < 100 | CCOc1cn(-c2cnccc2CO)nc1C(=O)Nc1ccc(Oc2ccnc3cc(OC)c(OC)cc23)cc1F [Compound 209] |  |
| < 100 | < 100 | CCOc1cn(-c2cnccc2C)nc1C(=O)Nc1ccc(Oc2ccnc3cc(OC)c(OC)cc23)nn1 [Compound 210] |  |

Further lines, the compound ahead of its results:

| SMILES | Kd (Mer) [nM] | Kd (Axl) [nM] | Combination effect of compound and erlotinib on inhibition activity in Erlotinib-resistant cell-line (HCC827/ER cells) |
| --- | --- | --- | --- |
| CCOc1cn(-c2ncn(C)n2)nc1C(=O)Nc1ccc(Oc2ccnc3cc(OC)c(OC)cc23)cn1 [Compound 165] | < 100 | < 100 |  |
| CCOc1cn(-c2nc[nH]n2)nc1C(=O)Nc1ccc(Oc2ccnc3cc(OC)c(OC)cc23)cn1 [Compound 168] | < 100 | < 100 |  |
| CCOc1cn(-c2cnc(Cl)cn2)nc1C(=O)Nc1ccc(Oc2ccnc3cc(OC)c(OC)cc23)cn1 [Compound 169] | < 100 | < 100 |  |
| COc1cc2nccc(Oc3ccc(NC(=O)c4nn(-c5cccnc5)cc4OCC(F)(F)F)nc3)c2cc1OC [Compound 185] | < 100 | < 100 |  |
| COc1cc2nccc(Oc3ccc(NC(=O)c4nn(-c5ccc(OC(F)(F)F)cc5Cl)cc4OCC(F)(F)F)nc3)c2cc1OC [Compound 186] | < 100 | 100 to 1000 |  |
| CCOc1cn(-c2ccc(OC(F)(F)F)cc2Cl)nc1C(=O)Nc1ccc(Oc2ccnc3cc(OC)c(OC)cc23)c(F)c1 [Compound 189] | < 100 | < 100 |  |
| CCOc1cn(-c2nccnc2Cl)nc1C(=O)Nc1ccc(Oc2ccnc3cc(OC)c(OC)cc23)cc1F [Compound 190] | < 100 | < 100 |  |
| CCOc1cn(-c2c(C)ccnc2C)nc1C(=O)Nc1ccc(Oc2ccnc3cc(OC)c(OC)cc23)cc1F [Compound 191] | < 100 | < 100 |  |
| CCOc1cn(-c2ccc(OC(F)(F)F)cc2Cl)nc1C(=O)Nc1ccc(Oc2ccnc3cc(OC)c(OC)cc23)cc1F [Compound 192] | < 100 | < 100 |  |
| CCOc1cn(-c2cnccc2C(F)(F)F)nc1C(=O)Nc1ccc(Oc2ccnc3cc(OC)c(OC)cc23)cc1F [Compound 196] | < 100 | < 100 |  |
| CCOc1cn(-c2cnccc2C(C)(C)O)nc1C(=O)Nc1ccc(Oc2ccnc3cc(OC)c(OC)cc23)cc1F [Compound 197] | < 100 | < 100 |  |
| CCOc1cn(-c2cccnc2)nc1C(=O)Nc1ccc(Oc2ccnc3cc(OC)c(OC(F)(F)F)cc23)cn1 [Compound 199] | < 100 | < 100 |  |
| CCOc1cn(-c2nccnc2C(C)(C)O)nc1C(=O)Nc1ccc(Oc2ccnc3cc(OC)c(OC)cc23)cn1 [Compound 200] | < 100 | < 100 |  |
| CCOc1cn(-c2ccc(OC(F)(F)F)cc2Cl)nc1C(=O)Nc1ccc(Oc2ccnc3cc(OC)c(OC(F)(F)F)cc23)cn1 [Compound 201] | 100 to 1000 | ≥ 1000 |  |
| COc1cc2nccc(Oc3ccc(NC(=O)c4nn(-c5ccc(F)cc5C)cc4OCC(F)(F)F)nc3)c2cc1OC [Compound 203] | < 100 | < 100 |  |
| CCOc1cn(-c2cccnc2)nc1C(=O)Nc1ccc(Oc2ccnc3cc(OC(C)CC)c(OC)cc23)cn1 (stereo not shown) [Compound 206] | < 100 | < 100 |  |
| CCOc1cn(-c2cccnc2)nc1C(=O)Nc1ccc(Oc2ccnc3cc(OC(C)C)c(OC)cc23)cn1 [Compound 208] | < 100 | < 100 |  |
| CCOc1cn(C2CCCN(C)C2)nc1C(=O)Nc1ccc(Oc2ccnc3cc(OC)c(OC)cc23)cc1F (stereo not shown) [Compound 211] | 100 to 1000 | 100 to 1000 |  |
